According to ChEMBL document CHEMBL5316345, “Discovery of the Potent and Selective MC4R Antagonist PF-07258669 for the Potential Treatment of Appetite Loss” (J Med Chem, 2023):
Calls of active or inactive are those of the source. No cut-off for these calls is given here.

What was measured:
[1] = Oral bioavailability in Beagle dog at 1 mg/kg measured at 0.25 to 24 hrs by LC-MS/MS analysis; assay type: ADME, organism-based, Canis lupus familiaris; conditions: in vivo, time 0.25-24 hrs
[2] = Passive apparent permeability in MDCKII-LE cells; assay type: ADME, cell-based, Canis lupus familiaris; conditions: dog, MDCK; read-out: permeability (converted)
[3] = Half life in Wistar Han rat at 1 mg/kg, iv measured at 0.033 to 24 hrs by LC-MS/MS analysis; assay type: ADME, organism-based; conditions: in vivo, time 0.033-24 hrs
[4] = target: cGMP-specific 3',5'-cyclic phosphodiesterase (Homo sapiens, UniProt O76074); experiment: Inhibition of human PDE5A1
[5] = AUClast in Beagle dog at 1 mg/kg, iv measured at 0.033 to 24 hrs by LC-MS/MS analysis; assay type: ADME, organism-based, Canis lupus familiaris; design: dose 1 mg/kg, time 0.033-24 hrs, route iv; conditions: in vivo
Melanocortin receptor 4 = Melanocortin receptor 4 (Rattus norvegicus, UniProt P70596); experiment: Displacement of [125I]-NDP-alpha-MSH from rat MC4R expressed in CHO cells by microbeta counter analysis; assay type: cell-based
[6] = Displacement of [125I]-NDP-alpha-MSH from dog MC4R expressed in CHO cells by microbeta counter analysis; assay type: cell-based, Canis lupus familiaris
Mus musculus [7] = experiment: Effect on body weight in anorexia/cachexia mouse model assessed as cumulative body weight gain at 1 mg/kg, po administered twice a day for 20 days and measured at 1 to 21 days; assay type: functional; conditions: time 1-21 day
[8] = target: Melanocyte-stimulating hormone receptor (Homo sapiens, UniProt Q01726); experiment: Displacement of [125I]-NDP-alpha-MSH from human MC1R expressed in CHO cells measured for 2 hrs by microbeta counter analysis; assay type: cell-based
Mus musculus [9] = experiment: Effect on body weight in anorexia/cachexia mouse model assessed as cumulative body weight gain at 10 mg/kg, po administered twice a day for 20 days and measured at 1 to 21 days; assay type: functional; conditions: time 1-21 day
[10] = target: 3',5'-cyclic-AMP phosphodiesterase 4D (Homo sapiens, UniProt Q08499); experiment: Inhibition of human PDE4D3
[11] = target: Adrenocorticotropic hormone receptor (Homo sapiens) (UniProt Q01718); experiment: Agonist activity at human MC2R expressed in CHO cells assessed as increase in alpha-MSH induced cAMP level measured for 60 mins; assay type: functional, cell-based
Melanocortin receptor 5 [12] = target: T1, Melanocortin receptor 5 (Homo sapiens, UniProt P33032); experiment: Agonist activity at human MC5R expressed in CHO cells assessed as increase in alpha-MSH induced cAMP level measured for 60 mins; assay type: functional, cell-based
Cytochrome P450 3A = Cytochrome P450 3A (Homo sapiens, UniProt P08684+P20815+Q9HB55+P24462); experiment: Time dependent inhibition of CYP3A (unknown origin) at 10 uM relative to control; assay type: ADME, protein assay
Mus musculus [13] = experiment: Effect on body weight in anorexia/cachexia mouse model assessed as cumulative body weight gain at 3 mg/kg, po administered twice a day for 20 days and measured at 1 to 21 days; assay type: functional; conditions: time 1-21 day
[14] = AUC (0 to infinity) in Wistar Han rat at 5 mg/kg, po measured at 0.083 to 24 hrs by LC-MS/MS analysis; assay type: ADME, organism-based; design: dose 5 mg/kg, time 0.083-24 hrs, route po; conditions: in vivo
Mus musculus [15] = experiment: Effect on body weight in anorexia/cachexia mouse model assessed as reduction in cumulative food intake at 0.3 mg/kg, po administered twice a day for 20 days and measured at 1 to 21 days; assay type: functional; design: scale not given: the % may be the effect or the level left; conditions: time 1-21 day
[16] = Lipophilicity, logD of compound at pH 7.4 by shake flask method; assay type: physicochemical; conditions: buffer
[17] = AUClast in Beagle dog at 1 mg/kg, po measured at 0.25 to 24 hrs by LC-MS/MS analysis; assay type: ADME, organism-based, Canis lupus familiaris; design: time upper 24 hrs, dose 1 mg/kg, time lower 0.25 hrs, route po; conditions: in vivo
[18] = target: High affinity cGMP-specific 3',5'-cyclic phosphodiesterase 9A (Homo sapiens, UniProt O76083); experiment: Inhibition of human PDE9A1
[19] = AUClast in Wistar Han rat at 1 mg/kg, iv measured at 0.033 to 24 hrs by LC-MS/MS analysis; assay type: ADME, organism-based; design: dose 1 mg/kg, time upper 24 hrs, time lower 0.033 hrs, route iv; conditions: in vivo
[20] = target: Dual 3',5'-cyclic-AMP and -GMP phosphodiesterase 11A (Homo sapiens, UniProt Q9HCR9); experiment: Inhibition of human PDE11A4
[21] = target: Voltage-dependent L-type calcium channel subunit alpha-1C (Homo sapiens, UniProt Q13936); experiment: Inhibition of Cav1.2 (unknown origin)
[22] = Oral bioavailability in Wistar Han rat at 5 mg/kg measured at 0.083 to 24 hrs by LC-MS/MS analysis; assay type: ADME, organism-based; conditions: in vivo, time 0.083-24 hrs
Mus musculus [23] = experiment: Effect on body weight in anorexia/cachexia mouse model assessed as increase in food intake administered twice a day for 20 days and measured at 1 to 21 days; assay type: functional, organism-based; conditions: dose 0.3-10 mg/kg, time 1-21 day
[24] = AUClast in Wistar Han rat at 5 mg/kg, po measured at 0.083 to 24 hrs by LC-MS/MS analysis; assay type: ADME, organism-based; design: time upper 24 hrs, dose 5 mg/kg, time lower 0.083 hrs, route po; conditions: in vivo
Melanocortin receptor 5 [25] = target: T1, Melanocortin receptor 5; experiment: Displacement of [125I]-NDP-alpha-MSH from human MC5R expressed in CHO cells measured for 2 hrs by microbeta counter analysis; assay type: cell-based
[26] = AUC (0 to infinity) in Wistar Han rat at 1 mg/kg, iv measured at 0.033 to 24 hrs by LC-MS/MS analysis; assay type: ADME, organism-based; design: time upper 24 hrs, dose 1 mg/kg, time lower 0.033 hrs, route iv; conditions: in vivo
[27] = Half life in Wistar Han rat at 5 mg/kg, po measured at 0.083 to 24 hrs by LC-MS/MS analysis; assay type: ADME, organism-based; conditions: in vivo, time 0.083-24 hrs
[28] = Metabolic stability in human hepatocyte assessed as intrinsic clearance measured per million cells HPLC/UV/MS analysis; assay type: ADME, cell-based; conditions: hepatocytes, read-out: CLH
Phosphodiesterase 6 = experiment: Inhibition of human PDE6; assay type: protein assay
Mus musculus [29] = experiment: Effect on body weight in anorexia/cachexia mouse model assessed as reduction in cumulative food intake at 3 mg/kg, po administered twice a day for 20 days and measured at 1 to 21 days; assay type: functional; design: scale not given: the % may be the effect or the level left; conditions: time 20 day
[30] = target: 3',5'-cyclic-AMP phosphodiesterase 7B (Homo sapiens, UniProt Q9NP56); experiment: Inhibition of human PDE7B
Mus musculus [31] = experiment: Effect on body weight in anorexia/cachexia mouse model assessed as reduction in cumulative food intake at 10 mg/kg, po administered twice a day for 20 days and measured at 1 to 21 days; assay type: functional; design: scale not given: the % may be the effect or the level left; conditions: time 20 day
[32] = Cmax in Beagle dog at 1 mg/kg, po measured at 0.25 to 24 hrs by LC-MS/MS analysis; assay type: ADME, organism-based, Canis lupus familiaris; design: dose 1 mg/kg, time 0.25-24 hrs, route po; conditions: in vivo
[33] = AUC (0 to infinity) in Beagle dog at 1 mg/kg, iv measured at 0.033 to 24 hrs by LC-MS/MS analysis; assay type: ADME, organism-based, Canis lupus familiaris; design: time upper 24 hrs, dose 1 mg/kg, time lower 0.033 hrs, route iv; conditions: in vivo
[34] = target: Voltage-gated inwardly rectifying potassium channel KCNH2 (Homo sapiens, UniProt Q12809); experiment: Inhibition of hERG expressed in CHO cells stably at -80 mV holding potential by automated patch clamp method; assay type: toxicity, cell-based
[35] = target: cAMP and cAMP-inhibited cGMP 3',5'-cyclic phosphodiesterase 10A (Homo sapiens, UniProt Q9Y233); experiment: Inhibition of human PDE10A1
[36] = Octanol-water distribution coefficient, logD of the compound at pH 7.4 by RP-HPLC analysis; assay type: physicochemical
[37] = target: cGMP-dependent 3',5'-cyclic phosphodiesterase (Homo sapiens, UniProt O00408); experiment: Inhibition of human PDE2A1
Chain of cGMP-dependent 3',5'-cyclic phosphodiesterase (O00408 whole entry): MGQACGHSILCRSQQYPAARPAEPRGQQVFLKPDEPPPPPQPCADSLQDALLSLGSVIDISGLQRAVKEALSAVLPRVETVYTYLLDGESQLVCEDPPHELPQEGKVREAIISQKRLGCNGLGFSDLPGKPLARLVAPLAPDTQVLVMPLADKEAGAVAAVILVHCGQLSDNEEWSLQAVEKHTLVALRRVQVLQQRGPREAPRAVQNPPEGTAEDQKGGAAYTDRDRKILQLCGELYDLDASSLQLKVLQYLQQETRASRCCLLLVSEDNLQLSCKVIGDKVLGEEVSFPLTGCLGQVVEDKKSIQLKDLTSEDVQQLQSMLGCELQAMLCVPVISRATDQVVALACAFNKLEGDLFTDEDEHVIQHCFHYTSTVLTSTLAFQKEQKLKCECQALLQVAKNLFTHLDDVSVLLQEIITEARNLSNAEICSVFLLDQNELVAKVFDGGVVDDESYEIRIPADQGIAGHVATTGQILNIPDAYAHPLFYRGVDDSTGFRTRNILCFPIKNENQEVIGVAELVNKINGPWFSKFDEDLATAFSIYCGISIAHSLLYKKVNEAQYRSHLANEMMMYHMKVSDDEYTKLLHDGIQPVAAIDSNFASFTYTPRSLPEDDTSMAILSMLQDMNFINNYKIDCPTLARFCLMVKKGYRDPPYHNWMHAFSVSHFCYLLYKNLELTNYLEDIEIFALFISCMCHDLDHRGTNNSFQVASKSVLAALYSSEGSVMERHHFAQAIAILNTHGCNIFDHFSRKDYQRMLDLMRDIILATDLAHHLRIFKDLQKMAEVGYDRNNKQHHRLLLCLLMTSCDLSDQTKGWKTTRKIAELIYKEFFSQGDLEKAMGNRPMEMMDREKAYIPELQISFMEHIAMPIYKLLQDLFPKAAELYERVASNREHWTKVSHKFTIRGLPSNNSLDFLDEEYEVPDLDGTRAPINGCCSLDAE

T1 sequence (P33032 whole entry): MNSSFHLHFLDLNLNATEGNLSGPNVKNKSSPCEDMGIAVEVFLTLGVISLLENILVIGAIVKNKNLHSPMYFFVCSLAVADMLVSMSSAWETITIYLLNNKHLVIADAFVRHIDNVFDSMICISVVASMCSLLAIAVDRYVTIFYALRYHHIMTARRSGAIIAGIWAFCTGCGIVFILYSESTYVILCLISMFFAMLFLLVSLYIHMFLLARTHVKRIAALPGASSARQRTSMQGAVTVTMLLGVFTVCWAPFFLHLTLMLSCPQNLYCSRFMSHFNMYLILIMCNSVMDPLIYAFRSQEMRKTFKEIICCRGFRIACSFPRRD
Chain of cAMP and cAMP-inhibited cGMP 3',5'-cyclic phosphodiesterase 10A (Q9Y233 whole entry): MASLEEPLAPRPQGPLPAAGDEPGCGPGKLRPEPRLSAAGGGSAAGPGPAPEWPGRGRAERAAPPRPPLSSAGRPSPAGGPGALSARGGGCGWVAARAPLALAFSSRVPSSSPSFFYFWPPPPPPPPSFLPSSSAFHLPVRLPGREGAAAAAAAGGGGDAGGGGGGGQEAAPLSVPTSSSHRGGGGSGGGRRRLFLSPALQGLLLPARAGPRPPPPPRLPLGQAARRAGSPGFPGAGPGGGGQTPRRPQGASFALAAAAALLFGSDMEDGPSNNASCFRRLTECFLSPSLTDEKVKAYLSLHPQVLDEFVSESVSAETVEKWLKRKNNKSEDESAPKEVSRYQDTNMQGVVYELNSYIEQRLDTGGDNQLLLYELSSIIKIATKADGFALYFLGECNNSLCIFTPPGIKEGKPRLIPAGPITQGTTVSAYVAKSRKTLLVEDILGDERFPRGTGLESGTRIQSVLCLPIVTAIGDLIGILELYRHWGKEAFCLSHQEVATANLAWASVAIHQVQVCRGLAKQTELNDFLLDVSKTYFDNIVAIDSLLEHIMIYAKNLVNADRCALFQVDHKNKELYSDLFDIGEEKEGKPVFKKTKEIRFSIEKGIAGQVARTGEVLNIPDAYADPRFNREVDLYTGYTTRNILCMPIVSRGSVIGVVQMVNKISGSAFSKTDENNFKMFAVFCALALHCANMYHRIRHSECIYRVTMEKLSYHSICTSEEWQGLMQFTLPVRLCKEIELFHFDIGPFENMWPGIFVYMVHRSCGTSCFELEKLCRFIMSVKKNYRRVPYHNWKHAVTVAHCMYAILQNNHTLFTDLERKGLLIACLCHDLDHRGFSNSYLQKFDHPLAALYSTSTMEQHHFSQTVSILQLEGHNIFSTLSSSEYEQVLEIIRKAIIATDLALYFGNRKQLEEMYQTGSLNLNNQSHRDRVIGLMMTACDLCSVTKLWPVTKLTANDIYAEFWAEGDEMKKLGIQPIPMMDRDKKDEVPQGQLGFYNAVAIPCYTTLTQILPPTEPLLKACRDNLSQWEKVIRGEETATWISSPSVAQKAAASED
Chain of Melanocortin receptor 4 (P70596 whole entry): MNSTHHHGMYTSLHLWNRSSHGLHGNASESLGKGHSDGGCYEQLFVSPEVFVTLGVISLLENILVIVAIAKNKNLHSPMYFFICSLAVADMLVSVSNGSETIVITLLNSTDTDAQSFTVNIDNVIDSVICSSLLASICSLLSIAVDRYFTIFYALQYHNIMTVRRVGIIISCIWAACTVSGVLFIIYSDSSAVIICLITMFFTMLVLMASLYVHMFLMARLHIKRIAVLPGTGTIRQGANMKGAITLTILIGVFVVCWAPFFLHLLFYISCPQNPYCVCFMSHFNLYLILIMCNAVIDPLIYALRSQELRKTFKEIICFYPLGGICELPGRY
Chain of Dual 3',5'-cyclic-AMP and -GMP phosphodiesterase 11A (Q9HCR9 whole entry): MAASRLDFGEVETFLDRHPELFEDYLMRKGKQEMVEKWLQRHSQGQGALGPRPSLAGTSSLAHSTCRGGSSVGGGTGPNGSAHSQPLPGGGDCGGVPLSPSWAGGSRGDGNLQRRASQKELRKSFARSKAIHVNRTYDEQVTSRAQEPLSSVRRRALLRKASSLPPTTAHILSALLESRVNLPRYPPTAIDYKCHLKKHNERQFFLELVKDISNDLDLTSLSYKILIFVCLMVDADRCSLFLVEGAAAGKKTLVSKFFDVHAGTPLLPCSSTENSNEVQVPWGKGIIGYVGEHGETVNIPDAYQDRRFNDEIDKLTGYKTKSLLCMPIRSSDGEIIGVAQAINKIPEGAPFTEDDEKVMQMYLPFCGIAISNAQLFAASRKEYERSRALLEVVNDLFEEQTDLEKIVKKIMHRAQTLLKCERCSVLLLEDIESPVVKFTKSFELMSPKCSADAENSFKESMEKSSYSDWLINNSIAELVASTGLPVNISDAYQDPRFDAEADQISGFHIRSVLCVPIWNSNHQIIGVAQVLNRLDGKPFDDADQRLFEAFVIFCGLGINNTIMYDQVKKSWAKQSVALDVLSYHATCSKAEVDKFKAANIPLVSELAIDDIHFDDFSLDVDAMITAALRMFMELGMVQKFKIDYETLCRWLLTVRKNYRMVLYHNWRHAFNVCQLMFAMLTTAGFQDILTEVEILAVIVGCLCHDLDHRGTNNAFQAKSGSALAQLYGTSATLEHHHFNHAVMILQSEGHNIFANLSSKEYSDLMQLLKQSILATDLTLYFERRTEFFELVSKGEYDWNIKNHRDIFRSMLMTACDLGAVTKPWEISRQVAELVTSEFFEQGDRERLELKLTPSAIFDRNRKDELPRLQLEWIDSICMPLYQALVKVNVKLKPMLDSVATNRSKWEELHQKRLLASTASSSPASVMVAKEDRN
Chain of Melanocyte-stimulating hormone receptor (Q01726 whole entry): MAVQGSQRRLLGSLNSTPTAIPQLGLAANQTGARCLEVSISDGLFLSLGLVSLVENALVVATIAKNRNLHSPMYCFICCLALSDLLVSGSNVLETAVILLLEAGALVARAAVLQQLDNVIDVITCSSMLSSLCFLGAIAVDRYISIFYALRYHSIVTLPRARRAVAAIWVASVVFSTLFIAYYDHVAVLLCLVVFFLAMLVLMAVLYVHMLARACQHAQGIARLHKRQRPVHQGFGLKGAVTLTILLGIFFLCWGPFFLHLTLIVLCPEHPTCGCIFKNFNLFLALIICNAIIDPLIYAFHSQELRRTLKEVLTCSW
Chain of Adrenocorticotropic hormone receptor (Homo sapiens) (Q01718 whole entry): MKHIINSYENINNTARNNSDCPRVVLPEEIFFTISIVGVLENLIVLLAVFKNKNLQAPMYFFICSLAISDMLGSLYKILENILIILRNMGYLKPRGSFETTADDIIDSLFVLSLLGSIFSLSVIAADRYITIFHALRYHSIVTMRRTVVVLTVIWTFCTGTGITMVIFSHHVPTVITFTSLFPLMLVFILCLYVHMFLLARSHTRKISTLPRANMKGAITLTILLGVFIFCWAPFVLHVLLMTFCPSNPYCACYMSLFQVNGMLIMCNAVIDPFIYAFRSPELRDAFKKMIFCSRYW
Chain of 3',5'-cyclic-AMP phosphodiesterase 4D (Q08499 whole entry): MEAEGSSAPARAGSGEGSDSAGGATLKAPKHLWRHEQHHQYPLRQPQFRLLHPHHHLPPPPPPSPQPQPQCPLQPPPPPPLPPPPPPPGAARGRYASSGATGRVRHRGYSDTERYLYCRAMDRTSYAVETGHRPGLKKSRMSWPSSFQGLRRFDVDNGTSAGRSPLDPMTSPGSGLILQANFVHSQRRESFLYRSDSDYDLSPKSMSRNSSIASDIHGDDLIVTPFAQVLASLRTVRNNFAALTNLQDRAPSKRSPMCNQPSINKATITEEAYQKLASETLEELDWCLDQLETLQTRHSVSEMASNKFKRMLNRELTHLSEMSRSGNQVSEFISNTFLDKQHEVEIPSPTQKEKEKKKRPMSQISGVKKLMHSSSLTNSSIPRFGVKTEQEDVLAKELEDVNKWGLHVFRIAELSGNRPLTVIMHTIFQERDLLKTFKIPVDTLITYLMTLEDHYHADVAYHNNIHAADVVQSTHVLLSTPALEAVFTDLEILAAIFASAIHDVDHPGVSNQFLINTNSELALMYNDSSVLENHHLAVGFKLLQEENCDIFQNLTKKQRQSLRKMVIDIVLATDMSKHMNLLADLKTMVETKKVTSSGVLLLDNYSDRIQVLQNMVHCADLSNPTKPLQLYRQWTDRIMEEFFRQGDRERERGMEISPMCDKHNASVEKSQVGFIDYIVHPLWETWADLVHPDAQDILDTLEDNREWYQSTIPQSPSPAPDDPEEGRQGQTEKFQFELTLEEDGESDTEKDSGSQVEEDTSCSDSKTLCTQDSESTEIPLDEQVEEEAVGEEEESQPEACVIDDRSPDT

F [1]: 93%
Papp [2]: 0.467 ×10⁻⁶ cm/s
half-life [3]: 60 min
IC50 [4]: > 50 µM
AUC(0-t) [5]: 1640 ng·h/mL
Ki (Melanocortin receptor 4): 0.00052 µM
Ki [8]: > 1.6 µM
IC50 [10]: > 50 µM
Activity [11]: inactive
Activity (Melanocortin receptor 5 [12]): inactive
K (Cytochrome P450 3A): 0.09 min⁻¹
AUC(0-inf) [14]: 1120 ng·h/mL
logD [16]: 2.6
AUC(0-t) [17]: 4580 ng·h/mL
IC50 [18]: > 50 µM
AUC(0-t) [19]: 780 ng·h/mL
IC50 [20]: > 50 µM
bioavailability [22]: 28%
AUC(0-t) [24]: 1110 ng·h/mL
Ki (Melanocortin receptor 5 [25]): 0.84 µM
AUC(0-inf) [26]: 785 ng·h/mL
half-life [27]: 58.8 min
hepatocyte CLint [28]: 12 µL/min/1e6 cells
IC50 (Phosphodiesterase 6): > 50 µM
IC50 [30]: > 50 µM
Cmax [32]: 1470 ng/mL
AUC [33]: 1660 ng·h/mL
IC50 [35]: > 50 µM
logD [36]: 2.6
IC50 [37]: > 50 µM
Compound: COc1cc([C@@H](C)C(=O)N2CC[C@@]3(COc4cc(-c5ncccn5)c(C)nc4N3)C2)c(F)cn1
Ki [6]: 0.094 nM
Activity (Mus musculus [7]): 5%
Activity (Mus musculus [9]): 22%
Activity (Mus musculus [13]): 9%
Activity (Mus musculus [15]): 23%
IC50 [21]: > 100 µM
Activity (Mus musculus [23]): Dose-Dependent Effect
Activity (Mus musculus [29]): 40%
Activity (Mus musculus [31]): 111%
IC50 [34]: 27 µM
